In publication PMC6663879, “Biochemical and structural investigations clarify the substrate selectivity of the 2-oxoglutarate oxygenase JMJD6” (The Journal of Biological Chemistry, 2019):
Values joined by “and” are separate entries in the source; they are usually repeats but may differ in a detail not shown here. Identical values can stand only once. Ends that are not written are not given here.

Key:
[1] = target: T1, JMJD6^Δ363–403 (Homo sapiens, UniProt Q6NYC1); experiment: Standard MS-based hydroxylation assay (MALDI-TOF MS) of substrate peptides; assay type: biochemical; set-up: two more variants (aa 1–362, JMJD6^Δ363–403, and aa 1–343, JMJD6^Δ344–403); His6 (N); made in house; host or cells: Escherichia coli Rosetta2(DE3); conditions: for JMJD6-catalyzed hydroxylation (+16-Da mass shift), result in words: JMJD6^Δ363–403, standard assay conditions, MALDI-TOF MS / LC-MS/MS; for Hydroxylation: 10 μM JMJD6^Δ363–403, 100 μM peptide, 100 μM Fe(II), 400 μM ascorbate, 500 μM 2OG, 50 mM HEPES-KOH pH 8.0, 37 °C, 30 min, MALDI-TOF MS; for Hydroxylation / kcat / Km: mean ± S.D. (n = 3); for kcat/Km^app / kcat / Km: standard hydroxylation assay conditions, substrate peptide varied 0–400 μM; for Km: read-out: Km^app
[2] = test system: SAKcaC (stretch-activated BK channel); experiment: Single-channel current recording of SAKcaC with GsMTx4 back-filled in the pipette; assay type: cell-based, chick; conditions: for Po of SAKcaC (amplitude histogram): 50 nM GsMTx4 in pipette, 25 min after onset of back-filling, chick ventricular myocytes, typical patch
[3] = test system: JMJD2E (KDM4E); experiment: MS-based demethylation assay, positive control for RDM activity; assay type: biochemical; conditions: same conditions, MALDI-TOF MS / LC-MS/MS
Protocol: Reaction samples were thereafter analyzed by MALDI-TOF or LC-MS/MS.
Peptides were “trapped” on an in-house packed guard column (75-μm inner diameter × 20 mm, Acclaim PepMap® C18, 3 μm, 100 Å) using solvent A (0.1% (v/v) aqueous formic acid) at a pressure of 140 bar. Peptides were separated on an EASY-Spray Acclaim PepMap® analytical column (75 μm inner diameter × 15 mm, rapid separation liquid chromatography C18, 3 μm, 100 Å) using a linear gradient (length, 100 min; 3–60% solvent B (0.1% formic acid in acetonitrile), flow rate, 300 nl/min). The separated peptides were electro-sprayed directly into the spectrometer operating in a data-dependent mode using a collision-induced dissociation/electron transfer dissociation (CID/ETD)-based method. Full scan MS spectra (scan range 150–2000 m/z, resolution 30,000, AGC target 1 × 10^6, maximum injection time 250 ms) and subsequent CID MS/MS spectra (AGC target 3 × 10^4, maximum injection time 500 ms) of the 10 most intense peaks were acquired in the Orbitrap. CID fragmentation was performed at 35% of the normalized collision energy, and the signal intensity threshold was kept at 500 counts. ETD spectra (AGC cation target 5 × 10^4, AGC anion target 2 × 10^5, and cation maximum injection time 100 ms) were acquired in the ion trap. PEAKS® 8.0 (Bioinformatics Solutions, Inc., Waterloo, Canada) was used to analyze raw data. […]

[4] = target: T1, JMJD6^Δ363–403; experiment: Standard MS-based demethylation assay (MALDI-TOF, LC-MS/MS); assay type: biochemical; set-up: two more variants (aa 1–362, JMJD6^Δ363–403, and aa 1–343, JMJD6^Δ344–403); His6 (N); made in house; host or cells: Escherichia coli Rosetta2(DE3); conditions: JMJD6^Δ363–403, 37 °C, HEPES-KOH pH 8.0, MALDI-TOF MS / LC-MS/MS
Protocol: Peptides were “trapped” on an in-house packed guard column (75-μm inner diameter × 20 mm, Acclaim PepMap® C18, 3 μm, 100 Å) using solvent A (0.1% (v/v) aqueous formic acid) at a pressure of 140 bar. Peptides were separated on an EASY-Spray Acclaim PepMap® analytical column (75 μm inner diameter × 15 mm, rapid separation liquid chromatography C18, 3 μm, 100 Å) using a linear gradient (length, 100 min; 3–60% solvent B (0.1% formic acid in acetonitrile), flow rate, 300 nl/min). The separated peptides were electro-sprayed directly into the spectrometer operating in a data-dependent mode using a collision-induced dissociation/electron transfer dissociation (CID/ETD)-based method. Full scan MS spectra (scan range 150–2000 m/z, resolution 30,000, AGC target 1 × 10^6, maximum injection time 250 ms) and subsequent CID MS/MS spectra (AGC target 3 × 10^4, maximum injection time 500 ms) of the 10 most intense peaks were acquired in the Orbitrap. CID fragmentation was performed at 35% of the normalized collision energy, and the signal intensity threshold was kept at 500 counts. ETD spectra (AGC cation target 5 × 10^4, AGC anion target 2 × 10^5, and cation maximum injection time 100 ms) were acquired in the ion trap. PEAKS® 8.0 (Bioinformatics Solutions, Inc., Waterloo, Canada) was used to analyze raw data. The raw MS files were searched against the respective protein sequences. […]

[5] = JMJD6^Δ363–403, MALDI-TOF MS, inhibitor concentration not given

| Molecule | Hydroxylation [1] [%] | kcat/Km^app [1] [M⁻¹ s⁻¹] | kcat [1] | Km [1] [µM] | further results |
| --- | --- | --- | --- | --- | --- |
| ERα251–262K252A: ERα 251–262 peptide with alanine substitution K252A (MAGGIRKDRRGG; UniProt P03372 251-262, looked up, fragment K252A) | – | – | – | – | JMJD6-catalyzed hydroxylation (+16-Da mass shift), result in words [1]: Hydroxylation was ablated |
| RSRSGTRSPKKPSR [SRSF11_347–360, fragment of SRSF11] | 97.0 ± 2.2 | 159 | 146 ± 9.6 × 10^−4 s^−1 | 92 ± 14 | – |
| ENRHRKRSHSRSRSR [U2AF65_21–35, fragment of the RS region of U2AF65] | 74.7 ± 4.1 | 68 | 40.0 ± 2.2 × 10^−4 s^−1 | 59 ± 8.6 | – |
| SRERRKLSRSRSR [LUC7L1_287–298, fragment of LUC7L1] | 18.3 ± 3.1 | – | – | – | – |
| SRDHKRSRSRERRRS [CROP311–325, fragment of SR protein CROP/LUC7L3] | 89.3 ± 1.9 | 269 | 191 ± 6.6 × 10^−4 s^−1 | 71 ± 7.2 | – |
| RSKSPRRRRSHSR [SRSF11_286–298, fragment of SRSF11] | 90.5 ± 5.0 | 195 | 80.0 ± 3.9 × 10^−4 s^−1 | 41 ± 6.6 | – |
| RKHRSRSRDRRRSKS [CROP341–355, fragment of SR protein CROP/LUC7L3] | 92.7 ± 6.9 | 217 | 165 ± 12 × 10^−4 s^−1 | 76 ± 13 | – |
| H3_1–25: histone 3 peptide with unmodified arginine residues | – | – | – | – | JMJD6-catalyzed hydroxylation (+16-Da mass shift), result in words [1]: hydroxylation of lysine residues was also observed |
| KSKERKRSRDRE [RBM39_51–62, fragment of RBM39] | 37.0 ± 7.6 | – | – | – | – |
| RDRRRRSKPLTRGAK [U2AF65_55–70, fragment of U2AF65] | 61.0 ± 6.4 | 34 | 43.0 ± 5.2 × 10^−4 s^−1 | 124 ± 34 | – |
| NPKRSRSREHRR [LUC7L2_267–278, reported JMJD6 substrate, fragment of SR protein LUC7L2, reference compound] | 98.5 ± 4.8 | 208 | 106 × 10^−4 s^−1 and 106 ± 4.0 × 10^−4 s^−1 | 51 ± 4.6 | – |
| GsMTx4: inhibitor of stretch-activated BK channel (mismatched supplement) (GCLEFWWKCNPNDDKCCRPKLKCSKLFKLCNFSF; ends and bridges not checked; cysteine pairing not given here; UniProt Q7YT39 47-80, looked up) | – | – | – | – | Po of SAKcaC (amplitude histogram) ([2]; 1 mM intracellular Ca2+): 35.5; Po of SAKcaC (amplitude histogram) ([2]; –40 mV, 0.8 µM intracellular Ca2+): 14.2; Effect on stretch-activated BK channel and its single-channel conductance, result in words ([2]; 100 nM GsMTx4 in the pipette, 1 mM intracellular Ca2+, 30 min after onset of back-filling): inhibits stretch-activated BK channel without changing single-channel conductance |
| SRRRSRSKSPFR [RBM39_121–132, fragment of RBM39] | 82.5 ± 5.6 | 303 | 300 ± 23 × 10^−4 s^−1 | 99 ± 19 | – |
| KRHSRSRSRS [Acinus S′95–604, fragment of Acinus S′] | 12.5 ± 3.0 | – | – | – | – |
| ERα251–262K257A: ERα 251–262 peptide with alanine substitution K257A (MKGGIRADRRGG; UniProt P03372 251-262, looked up, fragment K257A) | – | – | – | – | JMJD6-catalyzed hydroxylation (+16-Da mass shift), result in words [1]: Hydroxylation was ablated |
| ERGRRSRSTSKT [SRSF11_299–310, fragment of SRSF11] | 6.40 ± 0.90 | – | – | – | – |
| DRKSYKHRSKSRDR [CROP357–370, fragment of SR protein CROP/LUC7L3] | 88.7 ± 4.9 | 42 | 39.0 ± 3.6 × 10^−4 s^−1 | 93 ± 20 | – |
| pVHL166–177K171A: alanine variant of pVHL166–177 (VRSLVAPENYRR; UniProt P40337 166-177, looked up, fragment K171A) | – | – | – | – | JMJD6-catalyzed hydroxylation (+16-Da mass shift), result in words [1]: did not manifest hydroxylation |
| H4_1–30: histone 4 peptide with unmodified arginine residues | – | – | – | – | JMJD6-catalyzed hydroxylation (+16-Da mass shift), result in words [1]: hydroxylation of lysine residues was also observed |
| O=C(O)c1ccnc(C(=O)O)c1 [2,4-PDCA, 2,4-pyridine dicarboxylic acid, reference compound] | – | – | – | – | Hydroxylation of ERα 251–262 peptide by JMJD6 on addition of the inhibitor [1, 5]: Hydroxylation was ablated; Hydroxylation of WT pVHL166–177 by JMJD6 in the presence of the inhibitor [1, 5]: did not manifest hydroxylation |
| PRSRSRSRDRRRKE [Acinus S′447–460, fragment of Acinus S′] | 25.6 ± 2.8 | – | – | – | – |
| SRSRRRSHSKSR [SRSF11_271–282, fragment of SRSF11] | 33.6 ± 1.8 | – | – | – | – |
| SRSRSRDRKRRSRSRDR [U2AF65_30–46, fragment of the RS region of U2AF65] | 72.4 ± 6.5 | 118 | 92.0 ± 7.0 × 10^−4 s^−1 | 78 ± 15 | – |
| RSPKRKLSRSPSPR [SRSF11_358–372, fragment of SRSF11] | 44.1 ± 3.9 | 229 | 174 ± 19 × 10^−4 s^−1 | 76 ± 21 | – |
| SGR(me2s)GKGGKGLGKGGAKRHK-biotin [H4R3(me2s)1–18, histone 4 peptide with symmetrically di-methylated Arg3 and K-biotin] | – | – | – | – | JMJD2E-catalyzed demethylation (−14 and −28 Da mass shifts), result in words [3]: manifested demethylation; JMJD6-catalyzed demethylation (−14 or −28 Da mass shift), result in words [4]: does not have RDM activity; JMJD6-catalyzed hydroxylation (+16-Da mass shift), result in words [1]: catalyzes hydroxylation |
| RKRSRSKERRRS [RBM39_71–82, fragment of RBM39] | 87.6 ± 7.0 | 322 | 284 ± 11 × 10^−4 s^−1 | 88 ± 8.7 | – |
| RSKKRKKSKSRS [RBM39_31–42] | 99.0 ± 0.70 | 455 | 255 ± 15 × 10^−4 s^−1 | 56 ± 9.6 | – |
| pVHL166–177: lysine-containing pVHL sequence (VRSLVKPENYRR; UniProt P40337 166-177, looked up, fragment) | – | – | – | – | JMJD6-catalyzed hydroxylation (+16-Da mass shift), result in words [1]: presence of a +16-Da mass shift |
| SKSRSRSHERKRS [RBM39_38–50, fragment of RBM39] | 79.0 ± 8.9 | 395 | 281 ± 15 × 10^−4 s^−1 | 71 ± 9.9 | – |
